Our source for the IC50 values is US10501489B2, “C17-alkanediyl and alkenediyl derivatives of oleanolic acid and methods of use thereof” (REATA PHARMACEUTICALS, INC., priority 2012, dated 2019).

This experiment has as its system RAW264.7 mouse macrophages. Briefly: Suppression of IFNγ-induced NO production (nitric oxide production and cell viability assay). The class given is cell-based. As to conditions: RAW264.7 cells, drug pre-treatment 2 hours, then recombinant mouse IFNγ 24 hours; Griess reagent; normalized to cell viability (WST-1). The procedure: Assay results for the suppression of IFNγ-induced NO production are shown for several of the compounds of the present invention in Table 1 below. […] Details regarding this assay are provided in the Examples section below. Nitric Oxide Production and Cell Viability Assay. […] On the next day, cells were pre-treated with DMSO or drug (O-200 nM dose range) for 2 hours, and then treated with recombinant mouse IFNγ (R&D Systems) for 24 hours. Nitric Oxide concentration in media was determined using the Griess reagent system (Promega). Cell viability was determined using WST-1 reagent (Roche). IC50 values were determined based on the suppression of IFNγ induced Nitric Oxide production normalized to cell viability.
Background: The Griess reaction detects nitrite, a stable product of nitric oxide.

As a reminder, the IC50 is the concentration at which inhibition is half-maximal. For the compound `CC1(C)CC[C@]2(CCC(=O)N3CCN(C(=O)OC(C)(C)C)CC3)CC[C@]3(C)[C@H](C(=O)C=C4[C@@]5(C)C=C(C#N)C(=O)C(C)(C)[C@@H]5CC[C@]43C)[C@@H]2C1` [TX64124], the IC50 worked out at 3.4 nM.

As for `CC1(C)CC[C@]2(CCC(=O)N3CCNCC3)CC[C@]3(C)[C@H](C(=O)C=C4[C@@]5(C)C=C(C#N)C(=O)C(C)(C)[C@@H]5CC[C@]43C)[C@@H]2C1` [TX64135], the IC50 was 1.5 nM.
